Data as given in patent US12252524B2, “GIP/GLP1 co-agonist compounds” (Eli Lilly and Company, priority 2018, dated 2025).
Numbered stars: 1 amine (or outer) side, 2 acyl side, 3 side chain; on linkers, the order of the positions; unused ones are H or OH. Square brackets hold non-standard residues; d marks the D form. Side chains are listed from the residue outwards. Peptide text beside a SMILES is read from it. * marks the point of attachment. C20 diacid = O=C(O)CCCCCCCCCCCCCCCCCCC(=O)*; γGlu = O=C(O)[C@H](CCC(=O)[*:2])N[*:1]; αMeL = CC(C)C[C@](C)(N)C(=O)O; AEEA = NCCOCCOCC(=O)O; Aib = CC(C)(N)C(=O)O

Legend:
[1] = target: T1, human Gcg receptor (Homo sapiens, UniProt P47871); test: [125I]-Glucagon binding (SPA), human Gcg receptor; details: read-out: hGLcgR Ki, nM (SEM, n)
T1 construct: expressed in transfected cells; crude membranes
T1 sequence (P47871 26-477): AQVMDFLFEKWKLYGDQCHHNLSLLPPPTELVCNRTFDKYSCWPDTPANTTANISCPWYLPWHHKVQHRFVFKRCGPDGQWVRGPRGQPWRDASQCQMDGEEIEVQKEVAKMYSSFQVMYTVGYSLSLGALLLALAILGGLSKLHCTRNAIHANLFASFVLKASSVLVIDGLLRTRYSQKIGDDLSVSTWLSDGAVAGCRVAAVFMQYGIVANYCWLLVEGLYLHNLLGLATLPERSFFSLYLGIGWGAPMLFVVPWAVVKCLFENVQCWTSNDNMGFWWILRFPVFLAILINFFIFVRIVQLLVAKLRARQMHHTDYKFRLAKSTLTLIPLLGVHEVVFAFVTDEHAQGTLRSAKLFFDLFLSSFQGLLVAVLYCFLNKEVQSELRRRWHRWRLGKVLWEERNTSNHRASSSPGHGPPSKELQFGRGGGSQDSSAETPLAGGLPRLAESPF
Summary of the method: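 Cell pellets were lysed in hypotonic Tris buffer, pH 7.5, homogenized, and spun at low then high speed to give crude membranes. Ki was derived from the fitted IC50.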

[2] = target: T2, human GIP receptor (Homo sapiens, UniProt P48546); test: [125I]-GIP binding (SPA), human GIP receptor; details: read-out: hGIPR Ki, nM (SEM, n)
T2 construct: expressed in transfected cells; crude membranes
T2 sequence (P48546 22-466): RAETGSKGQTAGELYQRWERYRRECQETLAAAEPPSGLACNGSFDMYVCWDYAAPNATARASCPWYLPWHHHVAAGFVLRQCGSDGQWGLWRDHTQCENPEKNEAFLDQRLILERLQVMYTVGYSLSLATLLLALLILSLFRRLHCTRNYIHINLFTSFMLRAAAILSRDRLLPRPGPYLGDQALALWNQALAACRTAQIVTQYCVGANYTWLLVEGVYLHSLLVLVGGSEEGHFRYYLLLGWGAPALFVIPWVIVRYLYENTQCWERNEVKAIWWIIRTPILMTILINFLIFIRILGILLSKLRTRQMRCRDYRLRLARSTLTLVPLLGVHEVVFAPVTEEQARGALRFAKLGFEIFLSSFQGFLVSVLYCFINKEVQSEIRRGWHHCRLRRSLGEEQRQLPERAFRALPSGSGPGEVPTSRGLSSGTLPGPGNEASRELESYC

[3] = target: human GLP-1 receptor (GLP-1R) (Homo sapiens, UniProt P43220); test: cAMP pharmacological functional assay in presence of casein, hGLP-1R; format: cell-based; details: HEK293 cells expressing hGLP-1R, 0.1% Casein, geometric mean; read-out: hGLP1R cAMP Rel EC50 nM (SEM, n)
Chain of human GLP-1 receptor (GLP-1R) (P43220 24-463): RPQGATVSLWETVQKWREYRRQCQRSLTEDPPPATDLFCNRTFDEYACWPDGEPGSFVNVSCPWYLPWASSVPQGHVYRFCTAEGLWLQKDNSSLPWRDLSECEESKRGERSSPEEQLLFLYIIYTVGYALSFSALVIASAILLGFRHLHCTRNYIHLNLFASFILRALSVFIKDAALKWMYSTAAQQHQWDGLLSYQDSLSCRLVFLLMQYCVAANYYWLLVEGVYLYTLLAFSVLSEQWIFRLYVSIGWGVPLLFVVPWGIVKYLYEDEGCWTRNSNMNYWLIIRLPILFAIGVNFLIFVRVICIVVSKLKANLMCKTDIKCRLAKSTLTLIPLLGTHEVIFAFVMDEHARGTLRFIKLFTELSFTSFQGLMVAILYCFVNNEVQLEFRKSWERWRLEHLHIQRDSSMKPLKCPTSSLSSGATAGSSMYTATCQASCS

[4] = target: T3, gastric inhibitory peptide receptor (GIPR) (Homo sapiens, UniProt P48546); test: cAMP pharmacological functional assay in presence of casein, hGIPR; format: cell-based; details: HEK293 cells expressing hGIPR, 0.1% Casein, geometric mean; read-out: hGIPR cAMP Rel EC50 nM (SEM, n)
T3 sequence (P48546 22-466): T2 sequence (P48546 22-466)

[5] = target: human GLP-1R (Homo sapiens, UniProt P43220); test: [125I]-GLP-1 binding (SPA), human GLP-1 receptor; design: expressed in transfected cells; crude membranes; details: read-out: hGLP1R Ki, (nM) (SEM, n)
Chain of human GLP-1R (P43220 24-463): as above
Summary of the method: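 Membranes: hypotonic lysis (50 mM Tris HCl, pH 7.5, protease inhibitors), Potter-Elvehjem homogenization, high-speed pellet (35000×g 1 h or 25000×g 30 min, 4° C.). Buffer: 25 mM HEPES pH 7.4, 2.5 mM CaCl2, 1 mM MgCl2. Four-parameter IC50 fit; Ki as geometric mean ± SEM.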

Row | Compound | Ki [1] [nM] | Ki [2] [nM] | EC50 [3] [nM] | EC50 [4] [nM] | Ki [5] [nM]
1 | CC[C@H](C)[C@H](NC(=O)[C@H](CC(C)C)NC(=O)[C@H](Cc1ccc(O)cc1)NC(=O)[C@H](CCC(=O)O)NC(=O)[C@@H](NC(=O)[C@H](Cc1ccccc1)NC(=O)[C@H](C)NC(=O)[C@H](Cc1c[nH]cn1)NC(=O)[C@H](CCC(N)=O)NC(=O)[C@H](C)NC(=O)[C@H](CCCCNC(=O)COCCOCCNC(=O)COCCOCCNC(=O)CC[C@H](NC(=O)CCCCCCCCCCCCCCCCCCC(=O)O)C(=O)O)NC(=O)[C@H](CCC(=O)O)NC(=O)[C@H](CC(=O)O)NC(=O)[C@H](CC(C)C)NC(=O)[C@](C)(CC(C)C)NC(=O)[C@@H](NC(=O)[C@H](CO)NC(=O)[C@H](Cc1ccc(O)cc1)NC(=O)[C@H](CC(=O)O)NC(=O)[C@H](CO)NC(=O)[C@@H](NC(=O)[C@H](Cc1ccccc1)NC(=O)[C@@H](NC(=O)CNC(=O)[C@H](CCC(=O)O)NC(=O)C(C)(C)NC(=O)[C@@H](N)Cc1ccc(O)cc1)[C@@H](C)O)[C@@H](C)O)[C@@H](C)CC)[C@@H](C)CC)C(=O)N[C@@H](CCC(=O)O)C(=O)NCC(=O)NCC(=O)N1CCC[C@H]1C(=O)N[C@@H](CO)C(=O)N[C@@H](CO)C(=O)NCC(=O)N[C@@H](C)C(=O)N1CCC[C@H]1C(=O)N1CCC[C@H]1C(=O)N1CCC[C@H]1C(=O)N[C@@H](CO)C(N)=O [Example 56] (H-Y[Aib]EGTFTSDYSI[αMeL]LDEK([AEEA-AEEA-γGlu-C20 diacid])AQHAFIEYLIEGGPSSGAPPPS-NH2) | > 1060 | 0.148 | 0.136 | 0.167 | 10.3
2 | CC[C@H](C)[C@H](NC(=O)[C@H](CC(C)C)NC(=O)[C@H](Cc1ccc(O)cc1)NC(=O)[C@H](CCC(=O)O)NC(=O)[C@@H](NC(=O)[C@H](Cc1ccccc1)NC(=O)[C@H](C)NC(=O)C(C)(C)NC(=O)[C@H](CCC(N)=O)NC(=O)[C@H](C)NC(=O)[C@H](CCCCNC(=O)COCCOCCNC(=O)COCCOCCNC(=O)CC[C@H](NC(=O)CCCCCCCCCCCCCCCCCCC(=O)O)C(=O)O)NC(=O)[C@H](CCCCN)NC(=O)[C@H](CC(=O)O)NC(=O)[C@H](CC(C)C)NC(=O)[C@H](CC(C)C)NC(=O)[C@@H](NC(=O)[C@H](CO)NC(=O)[C@H](Cc1ccc(O)cc1)NC(=O)[C@H](CC(=O)O)NC(=O)[C@H](CO)NC(=O)[C@@H](NC(=O)[C@](C)(Cc1ccccc1)NC(=O)[C@@H](NC(=O)CNC(=O)[C@H](CCC(=O)O)NC(=O)C(C)(C)NC(=O)[C@@H](N)Cc1ccc(O)cc1)[C@@H](C)O)[C@@H](C)O)[C@@H](C)CC)[C@@H](C)CC)C(=O)N[C@@H](CCC(=O)O)C(=O)NCC(=O)NCC(=O)N1CCC[C@H]1C(=O)N[C@@H](CO)C(=O)N[C@@H](CO)C(=O)NCC(=O)N[C@@H](C)C(=O)N1CCC[C@H]1C(=O)N1CCC[C@H]1C(=O)N1CCC[C@H]1C(=O)N[C@@H](CO)C(N)=O [Example 57] | 26.1 | 0.0583 | 0.0668 | 0.0849 | 3
3 | CC[C@H](C)[C@H](NC(=O)[C@H](CC(C)C)NC(=O)[C@H](Cc1ccc(O)cc1)NC(=O)[C@H](CCC(=O)O)NC(=O)[C@@H](NC(=O)[C@H](Cc1ccccc1)NC(=O)[C@H](C)NC(=O)C(C)(C)NC(=O)[C@H](CCC(N)=O)NC(=O)[C@H](C)NC(=O)[C@H](CCCCNC(=O)COCCOCCNC(=O)COCCOCCNC(=O)CC[C@H](NC(=O)CCCCCCCCCCCCCCCCCCC(=O)O)C(=O)O)NC(=O)[C@H](CCCCN)NC(=O)[C@H](CC(=O)O)NC(=O)[C@H](CC(C)C)NC(=O)[C@H](CC(C)C)NC(=O)[C@H](CO)NC(=O)[C@H](CO)NC(=O)[C@H](Cc1ccc(O)cc1)NC(=O)[C@H](CC(=O)O)NC(=O)[C@H](CO)NC(=O)[C@@H](NC(=O)[C@H](Cc1ccccc1)NC(=O)[C@@H](NC(=O)CNC(=O)[C@H](CCC(=O)O)NC(=O)C(C)(C)NC(=O)[C@@H](N)Cc1ccc(O)cc1)[C@@H](C)O)[C@@H](C)O)[C@@H](C)CC)C(=O)N[C@@H](CCC(=O)O)C(=O)NCC(=O)NCC(=O)N1CCC[C@H]1C(=O)N[C@@H](CO)C(=O)N[C@@H](CO)C(=O)NCC(=O)N[C@@H](C)C(=O)N1CCC[C@H]1C(=O)N1CCC[C@H]1C(=O)N1CCC[C@H]1C(=O)N[C@@H](CO)C(N)=O [Example 58] (H-Y[Aib]EGTFTSDYSSLLDKK([AEEA-AEEA-γGlu-C20 diacid])AQ[Aib]AFIEYLIEGGPSSGAPPPS-NH2; N-terminus assumed) | 339 | 0.105 | 0.18 | 0.266 | 2.77
4 | CC[C@H](C)[C@H](NC(=O)[C@H](CC(C)C)NC(=O)[C@H](Cc1ccc(O)cc1)NC(=O)[C@H](CCC(=O)O)NC(=O)[C@@H](NC(=O)[C@H](Cc1ccccc1)NC(=O)[C@H](C)NC(=O)C(C)(C)NC(=O)[C@H](CCC(N)=O)NC(=O)[C@H](C)NC(=O)[C@H](CCCCNC(=O)COCCOCCNC(=O)COCCOCCNC(=O)CC[C@H](NC(=O)CCCCCCCCCCCCCCCCCCC(=O)O)C(=O)O)NC(=O)[C@H](CCC(=O)O)NC(=O)[C@H](CC(=O)O)NC(=O)[C@H](CC(C)C)NC(=O)[C@](C)(CC(C)C)NC(=O)[C@@H](NC(=O)[C@H](CO)NC(=O)[C@H](Cc1ccc(O)cc1)NC(=O)[C@H](CC(=O)O)NC(=O)[C@H](CO)NC(=O)[C@@H](NC(=O)[C@H](Cc1ccccc1)NC(=O)[C@@H](NC(=O)CNC(=O)[C@H](CCC(=O)O)NC(=O)C(C)(C)NC(=O)[C@@H](N)Cc1ccc(O)cc1)[C@@H](C)O)[C@@H](C)O)[C@@H](C)CC)[C@@H](C)CC)C(=O)N[C@@H](CCC(=O)O)C(=O)NCC(=O)NCC(=O)N1CCC[C@H]1C(=O)N[C@@H](CO)C(=O)N[C@@H](CO)C(=O)NCC(=O)N[C@@H](C)C(=O)N1CCC[C@H]1C(=O)N1CCC[C@H]1C(=O)N1CCC[C@H]1C(=O)N[C@@H](CO)C(N)=O [Example 59] (H-Y[Aib]EGTFTSDYSI[αMeL]LDEK([AEEA-AEEA-γGlu-C20 diacid])AQ[Aib]AFIEYLIEGGPSSGAPPPS-NH2) | 292 | 0.136 | 0.084 | 0.0922 | 8.2
5 | CC[C@H](C)[C@H](NC(=O)[C@H](CC(C)C)NC(=O)[C@H](Cc1ccc(O)cc1)NC(=O)[C@H](CCC(=O)O)NC(=O)[C@@H](NC(=O)[C@H](Cc1ccccc1)NC(=O)[C@H](C)NC(=O)C(C)(C)NC(=O)[C@H](CCC(N)=O)NC(=O)[C@H](C)NC(=O)[C@H](CCCCNC(=O)COCCOCCNC(=O)COCCOCCNC(=O)CC[C@H](NC(=O)CCCCCCCCCCCCCCCCCCC(=O)O)C(=O)O)NC(=O)C(C)(C)NC(=O)[C@H](CC(=O)O)NC(=O)[C@H](CC(C)C)NC(=O)[C@](C)(CC(C)C)NC(=O)[C@@H](NC(=O)[C@H](CO)NC(=O)[C@H](Cc1ccc(O)cc1)NC(=O)[C@H](CC(=O)O)NC(=O)[C@H](CO)NC(=O)[C@@H](NC(=O)[C@H](Cc1ccccc1)NC(=O)[C@@H](NC(=O)CNC(=O)[C@H](CCC(=O)O)NC(=O)C(C)(C)NC(=O)[C@@H](N)Cc1ccc(O)cc1)[C@@H](C)O)[C@@H](C)O)[C@@H](C)CC)[C@@H](C)CC)C(=O)N[C@@H](CCC(=O)O)C(=O)NCC(=O)NCC(=O)N1CCC[C@H]1C(=O)N[C@@H](CO)C(=O)N[C@@H](CO)C(=O)NCC(=O)N[C@@H](C)C(=O)N1CCC[C@H]1C(=O)N1CCC[C@H]1C(=O)N1CCC[C@H]1C(=O)N[C@@H](CO)C(N)=O [Example 60] (H-Y[Aib]EGTFTSDYSI[αMeL]LD[Aib]K([AEEA-AEEA-γGlu-C20 diacid])AQ[Aib]AFIEYLIEGGPSSGAPPPS-NH2) | 237 | 0.0655 | 0.287 | 0.135 | 9.55
